From PMC10685196 (Heliyon, 2023)
Where two headings read alike, the source gives them in different places. Each block holds one compound with its values, some of them ahead of it.

Legend:
Br2 β-glucosidase [1] = settings: read-out: pNP-Glc; 0.1 M sodium phosphate, pH 6.5, 40 °C, 10 min; cited from earlier work
Br2 β-glucosidase [2] = test: glucose release, glucose oxidase/ABTS assay, Michaelis-Menten fit; format: biochemical, uncultured bacterium; settings: 0.1 M sodium phosphate, pH 6.5, 40 °C, 10 min
Br2 β-glucosidase [3] = settings: 0.1 M sodium phosphate, pH 6.5, 40 °C, 10 min
Br2 β-glucosidase [4] = settings: read-out: pNP-Glc; 0.1 M sodium phosphate, pH 6.5, 40 °C, 10 min
Br2 β-glucosidase [5] = test: p-nitrophenol release, absorbance at […] nm, Michaelis-Menten fit; format: biochemical, uncultured bacterium; settings: read-out: pNP-Glc; 0.1 M sodium phosphate, pH 6.5, 40 °C, 10 min
[6] = target: Br2 β-glucosidase (glycoside hydrolase family 1), wild type (bovine rumen metagenome (microbe not identified)); test: SEC

Compound: OC[C@H]1O[C@@H](O[C@H]2[C@H](O)[C@@H](O)C(O)O[C@@H]2CO)[C@H](O)[C@@H](O)[C@@H]1O (stereo partly shown) [Cellobiose]
Km (Br2 β-glucosidase [1]): 24.3 ± 9.8 mM

Compound: OC[C@H]1O[C@@H](O[C@H]2[C@H](O)[C@@H](O)[C@H](O[C@H]3[C@H](O)[C@@H](O)[C@H](O[C@H]4[C@H](O)[C@@H](O)C(O)O[C@@H]4CO)O[C@@H]3CO)O[C@@H]2CO)[C@H](O)[C@@H](O)[C@@H]1O (stereo partly shown) [Cellotetraose]
Km (Br2 β-glucosidase [2]; read-out: Gentiobiose): 3.87 ± 0.16 mM | Km (Br2 β-glucosidase [3]; read-out: Gentiobiose): 1.83 ± 0.09 mM

Compound: OC[C@H]1O[C@@H](O[C@H]2[C@H](O)[C@@H](O)[C@H](O[C@H]3[C@H](O)[C@@H](O)C(O)O[C@@H]3CO)O[C@@H]2CO)[C@H](O)[C@@H](O)[C@@H]1O (stereo partly shown) [Cellotriose]
Km (Br2 β-glucosidase [2]; read-out: Sophorose): 6.73 ± 0.32 mM | Km (Br2 β-glucosidase [3]; read-out: Sophorose): 3.57 ± 0.33 mM

Compound: OC[C@H]1O[C@@H](OC[C@H]2OC(O)[C@H](O)[C@@H](O)[C@@H]2O)[C@H](O)[C@@H](O)[C@@H]1O (stereo partly shown) [Gentiobiose]
Km (Br2 β-glucosidase [2]; read-out: Gentiobiose): 35.8 ± 10.9 mM

Compound: OC[C@H]1O[C@@H](O[C@H]2[C@H](O)[C@@H](CO)OC(O)[C@@H]2O)[C@H](O)[C@@H](O)[C@@H]1O (stereo partly shown) [Laminaribiose]
Km (Br2 β-glucosidase [2]; read-out: pNP-Glc): 1.29 ± 0.08 mM | Km (Br2 β-glucosidase [4]): 11.7 ± 4.2 mM

Compound: OC[C@H]1O[C@@H](O[C@@H]2[C@@H](O)[C@H](O[C@@H]3[C@@H](O)[C@H](O[C@H]4[C@H](O)[C@@H](CO)OC(O)[C@@H]4O)O[C@H](CO)[C@H]3O)O[C@H](CO)[C@H]2O)[C@H](O)[C@@H](O)[C@@H]1O (stereo partly shown) [Laminaritetraose]
Km (Br2 β-glucosidase [2]; read-out: Gentiobiose): 2.56 ± 0.41 mM

Compound: OC[C@H]1O[C@@H](O[C@@H]2[C@@H](O)[C@H](O[C@H]3[C@H](O)[C@@H](CO)OC(O)[C@@H]3O)O[C@H](CO)[C@H]2O)[C@H](O)[C@@H](O)[C@@H]1O (stereo partly shown) [Laminaritriose]
Km (Br2 β-glucosidase [2]; read-out: Sophorose): 0.9 ± 0.09 mM

Compound: OC[C@H]1O[C@@H](O[C@H]2C(O)O[C@H](CO)[C@@H](O)[C@@H]2O)[C@H](O)[C@@H](O)[C@@H]1O (stereo partly shown) [Sophorose]
Km (Br2 β-glucosidase [2]; read-out: Sophorose): 2.68 ± 0.16 mM

Compound: O=[N+]([O-])c1ccc(O[C@@H]2O[C@H](CO)[C@@H](O)[C@H](O)[C@H]2O)cc1 [pNP-Glc, p-nitrophenyl β-D-glucopyranoside]
Km (Br2 β-glucosidase [5]): 0.55 ± 0.04 mM

stoichiometry N [6]: 4
Compound: Br2 β-glucosidase (glycoside hydrolase family 1), wild type (enzyme)
